INH data for eight compounds are collected here from ChEMBL document CHEMBL2406938, “Inhibitors of the renal outer medullary potassium channel” (ACS Med Chem Lett, 2013).

Structures are written as SMILES.

The target of assay [1] is T1, ATP-sensitive inward rectifier potassium channel 1 (Homo sapiens) (UniProt P48048).
T1 sequence (whole entry): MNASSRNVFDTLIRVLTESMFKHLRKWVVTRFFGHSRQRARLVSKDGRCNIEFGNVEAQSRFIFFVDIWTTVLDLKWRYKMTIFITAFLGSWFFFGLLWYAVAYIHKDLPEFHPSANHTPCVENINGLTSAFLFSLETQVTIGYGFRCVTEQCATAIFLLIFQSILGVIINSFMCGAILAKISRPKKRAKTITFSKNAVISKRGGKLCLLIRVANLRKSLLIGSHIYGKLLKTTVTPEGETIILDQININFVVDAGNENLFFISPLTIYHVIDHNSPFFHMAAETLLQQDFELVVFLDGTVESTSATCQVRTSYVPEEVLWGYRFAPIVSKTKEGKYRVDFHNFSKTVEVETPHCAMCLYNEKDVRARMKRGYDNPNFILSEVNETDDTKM
The experiment in a line: Inhibition of human Kir1.1 expressed in HEK293 cells by thallium flux assay. Type of assay: cell-based.

The target in assay [2] is T1, ATP-sensitive inward rectifier potassium channel 1 (Homo sapiens). The experiment in a line: Inhibition of human Kir1.1 expressed in CHO cells by whole cell voltage clamp assay. The class given is cell-based.

Take `O=C1OCc2cc([C@@H]3CN4CCN(C(=O)C5CCc6nc(-n7cnnn7)ccc65)C[C@H]4CO3)ccc21` (stereo not given in full): the INH in assay [1] is 0.11 µM; in assay [2], 0.09 µM. For `Cc1c([C@@H]2CN3CCN(C(=O)C4CCc5nc(-n6cnnn6)ccc54)C[C@H]3CO2)ccc(F)c1C#N` (stereo not given in full), in that order: 0.14 µM and 0.08 µM. With `N#Cc1c(F)ccc([C@@H]2CN3CCN(C(=O)C4CCc5nc(-n6cnnn6)ncc54)C[C@@H]3CO2)c1Cl` (stereo not given in full), the INH in assay [1] is 0.17 µM; in assay [2] it was 0.06 µM. For the compound `N#Cc1c(F)ccc([C@@H]2CN3CCN(C(=O)C4CCc5cc(-n6cnnn6)ncc54)C[C@H]3CO2)c1F` (stereo not given in full), the values for the INH in assay [1] and in assay [2] were 0.16 µM and 0.04 µM, respectively. In the case of `Cc1c([C@H]2CN3CCN(C(=O)C4CCc5nc(-n6cnnn6)ccc54)C[C@H]3CN2)ccc(F)c1C#N` (stereo not given in full), the INH turned out to be 0.16 µM in assay [1] and 0.09 µM in assay [2]. Regarding `Cc1c([C@@H]2CN3CCN(C(=O)C4CCc5nc(-n6cnnn6)ccc54)C[C@H]3CO2)csc1C#N` (stereo not given in full), the INH in assay [1] came out at 0.54 µM; in assay [2] it was 0.06 µM. The compound `O=C1OCc2cc([C@H]3CN4CCN(C(=O)C5CCc6cc(-n7cnnn7)ncc65)C[C@H]4CO3)ccc21` (stereo not given in full) displayed an INH in assay [2] of 0.06 µM. With `Cc1c([C@H]2CN3CCN(C(=O)C4CCc5cc(-n6cnnn6)ncc54)C[C@H]3CN2)ccc(F)c1C#N` (stereo not given in full), the INH in assay [1] was found to be 0.18 µM; in assay [2], 0.1 µM.
